Calls of active or inactive are those of the source. No cut-off for these calls is given here.
Assays:
[1] = Effective permeability by PAMPA-BBB penetration assay; format: ADME; conditions: read-out: Peff
[2] = Half life in human liver microsomes at 1 uM in presence of NADPH by LC-MS/MS analysis; format: ADME, Microsome
[3] = Intrinsic clearance in human liver microsomes at 1 uM in presence of NADPH by LC-MS/MS analysis; format: ADME, Microsome; conditions: read-out: CLH
[4] = target: Acetylcholinesterase (Electrophorus electricus) (UniProt O42275); experiment: Inhibition of Electrophorus electricus AChE at 10 uM pre-incubated for 5 mins before acetylthiocholine iodide substrate addition and measured after 2 mins
Sequence of Acetylcholinesterase (Electrophorus electricus) (O42275 24-633 limits assumed): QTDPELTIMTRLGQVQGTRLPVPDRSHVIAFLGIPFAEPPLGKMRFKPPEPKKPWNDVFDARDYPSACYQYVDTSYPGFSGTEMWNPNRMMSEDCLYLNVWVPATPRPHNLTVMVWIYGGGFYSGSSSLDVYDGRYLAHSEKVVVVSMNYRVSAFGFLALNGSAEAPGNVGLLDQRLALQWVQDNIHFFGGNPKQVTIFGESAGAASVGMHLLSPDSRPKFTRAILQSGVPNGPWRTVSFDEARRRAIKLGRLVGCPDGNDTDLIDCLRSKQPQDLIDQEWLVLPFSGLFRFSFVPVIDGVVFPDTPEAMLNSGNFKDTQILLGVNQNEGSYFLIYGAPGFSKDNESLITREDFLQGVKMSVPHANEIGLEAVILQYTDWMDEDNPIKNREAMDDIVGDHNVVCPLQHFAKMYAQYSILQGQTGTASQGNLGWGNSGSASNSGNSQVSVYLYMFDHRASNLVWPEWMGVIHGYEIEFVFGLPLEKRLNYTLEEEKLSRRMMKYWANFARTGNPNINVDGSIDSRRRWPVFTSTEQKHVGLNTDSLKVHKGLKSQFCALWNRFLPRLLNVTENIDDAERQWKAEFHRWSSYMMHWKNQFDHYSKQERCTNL

[5] = target: Cholinesterase (Equus caballus) (UniProt P81908); experiment: Inhibition of equine serum BChE at 10 uM pre-incubated for 5 mins before butyrylthiocholine iodide substrate addition and measured after 2 mins
Sequence of Cholinesterase (Equus caballus) (P81908 whole entry): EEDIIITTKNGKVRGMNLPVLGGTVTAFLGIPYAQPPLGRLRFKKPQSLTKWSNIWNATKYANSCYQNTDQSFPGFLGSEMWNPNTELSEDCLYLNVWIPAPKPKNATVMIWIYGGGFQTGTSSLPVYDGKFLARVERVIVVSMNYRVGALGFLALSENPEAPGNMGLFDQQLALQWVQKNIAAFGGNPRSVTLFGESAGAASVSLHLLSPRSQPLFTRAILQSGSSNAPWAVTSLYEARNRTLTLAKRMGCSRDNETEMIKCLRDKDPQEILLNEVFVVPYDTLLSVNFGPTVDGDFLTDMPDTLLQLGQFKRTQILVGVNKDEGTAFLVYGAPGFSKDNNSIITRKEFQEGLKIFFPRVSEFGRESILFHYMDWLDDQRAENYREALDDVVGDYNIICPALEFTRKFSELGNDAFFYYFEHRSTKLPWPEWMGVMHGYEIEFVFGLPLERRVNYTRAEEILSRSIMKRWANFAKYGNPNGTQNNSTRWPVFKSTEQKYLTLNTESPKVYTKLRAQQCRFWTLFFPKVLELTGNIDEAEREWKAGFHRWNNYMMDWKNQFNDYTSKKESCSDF

[6] = target: T1, Cholinesterase (Equus caballus, UniProt P81908); experiment: Inhibition of equine serum BChE pre-incubated for 5 mins before butyrylthiocholine iodide substrate addition and measured after 2 mins
T1 sequence (P81908 whole entry): as above

[7] = target: Acetylcholinesterase (Electrophorus electricus, UniProt O42275); experiment: Inhibition of Electrophorus electricus AChE pre-incubated for 5 mins before acetylthiocholine iodide substrate addition and measured after 2 mins
Sequence of Acetylcholinesterase (O42275 whole entry): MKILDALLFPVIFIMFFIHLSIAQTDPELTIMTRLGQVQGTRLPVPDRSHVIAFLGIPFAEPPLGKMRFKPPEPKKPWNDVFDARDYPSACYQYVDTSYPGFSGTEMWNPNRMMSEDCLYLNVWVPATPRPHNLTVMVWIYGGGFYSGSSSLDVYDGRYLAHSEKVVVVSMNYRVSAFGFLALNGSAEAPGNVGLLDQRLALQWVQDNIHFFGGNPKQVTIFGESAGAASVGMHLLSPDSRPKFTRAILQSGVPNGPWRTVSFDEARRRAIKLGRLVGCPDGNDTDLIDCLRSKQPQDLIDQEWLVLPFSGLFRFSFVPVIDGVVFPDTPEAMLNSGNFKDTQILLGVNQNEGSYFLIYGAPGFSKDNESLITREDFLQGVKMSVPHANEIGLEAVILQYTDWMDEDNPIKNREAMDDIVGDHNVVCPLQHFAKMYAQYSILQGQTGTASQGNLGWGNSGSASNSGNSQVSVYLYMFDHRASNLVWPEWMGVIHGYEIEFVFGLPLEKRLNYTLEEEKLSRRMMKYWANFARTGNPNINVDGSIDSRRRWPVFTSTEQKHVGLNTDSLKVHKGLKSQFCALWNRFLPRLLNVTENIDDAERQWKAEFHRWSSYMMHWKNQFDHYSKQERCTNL

[8] = target: Cholinesterase (Homo sapiens, UniProt P06276); experiment: Inhibition of human BChE pre-incubated for 5 mins before butyrylthiocholine iodide substrate addition and measured after 2 mins
Sequence of Cholinesterase (Homo sapiens, UniProt P06276) (P06276 whole entry): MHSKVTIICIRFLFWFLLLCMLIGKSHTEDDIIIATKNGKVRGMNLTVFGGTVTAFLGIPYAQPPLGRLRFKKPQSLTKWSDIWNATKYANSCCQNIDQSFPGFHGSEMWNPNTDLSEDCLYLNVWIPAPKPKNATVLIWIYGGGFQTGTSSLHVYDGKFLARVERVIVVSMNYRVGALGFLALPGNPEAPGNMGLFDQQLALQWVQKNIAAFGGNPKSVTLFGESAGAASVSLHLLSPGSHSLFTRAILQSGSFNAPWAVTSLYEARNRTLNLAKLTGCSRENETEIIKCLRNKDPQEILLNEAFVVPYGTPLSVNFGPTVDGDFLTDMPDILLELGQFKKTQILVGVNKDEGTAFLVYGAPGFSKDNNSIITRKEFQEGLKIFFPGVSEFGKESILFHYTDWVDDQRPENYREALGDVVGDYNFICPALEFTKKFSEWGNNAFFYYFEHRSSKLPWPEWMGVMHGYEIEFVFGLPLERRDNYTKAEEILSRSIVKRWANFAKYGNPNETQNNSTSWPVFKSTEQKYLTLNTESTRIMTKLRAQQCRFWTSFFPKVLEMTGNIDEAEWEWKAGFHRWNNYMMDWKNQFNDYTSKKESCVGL

[9] = target: T1, Cholinesterase; experiment: Noncompetitive inhibition of equine serum BChE pre-incubated for 5 mins before butyrylthiocholine iodide substrate addition and measured after 2 mins by Lineweaver-Burk plot analysis
[10] = target: Cholinesterase (Equus caballus) (UniProt P81908); experiment: Noncompetitive inhibition of equine serum BChE assessed as reduction in enzymatic velocity pre-incubated for 5 mins before butyrylthiocholine iodide substrate addition and measured after 2 mins by Lineweaver-Burk plot analysis
[11] = tested on: PC-12; experiment: Toxicity in rat PC12 cells assessed as reduction in cell viability at 2.5 to 50 uM incubated for 24 hrs by MTT assay; format: cell-based; conditions: pc-12, 24 h
[12] = tested on: SH-SY5Y; experiment: Toxicity in human SH-SY5Y cells assessed as reduction in cell viability at 2.5 to 50 uM incubated for 24 hrs by MTT assay; format: cell-based
[13] = tested on: PC-12; experiment: Toxicity in rat PC12 cells assessed as reduction in cell viability at 100 uM incubated for 24 hrs by MTT assay relative to control; format: cell-based; conditions: pc-12, 24 h
[14] = tested on: SH-SY5Y; experiment: Toxicity in human SH-SY5Y cells assessed as reduction in cell viability at 100 uM incubated for 24 hrs by MTT assay relative to control; format: cell-based
[15] = tested on: L02; experiment: Toxicity in human L02 cells assessed as reduction in cell viability at 2.5 to 100 uM incubated for 24 hrs by MTT assay; format: cell-based; conditions: l02, 24 h
[16] = tested on: HepG2; experiment: Toxicity in human HepG2 cells assessed as toxic dose for reduction in cell viability incubated for 24 hrs by MTT assay; format: cell-based; conditions: hepg2, 24 h
[17] = Toxicity in ICR mouse assessed as induction of animal death at 1 mg/kg, ig; format: organism-based; conditions: in vivo, po
[18] = Toxicity in ICR mouse assessed as induction of abnormal behaviors at 1 mg/kg, ig; format: organism-based; conditions: in vivo, po
[19] = Toxicity in ICR mouse assessed as effect on body weight at 1 mg/kg, ig; format: organism-based; conditions: in vivo, po
[20] = Hepatotoxicity in ICR mouse assessed as induction of pericentral necrosis at 30 mg/kg, ig measured after 8 to 36 hrs post dose by immunohistochemical staining assay; format: toxicity, organism-based; conditions: in vivo, po
[21] = Hepatotoxicity in ICR mouse assessed as induction of fatty degeneration of hepatocytes of surrounding intermediate and periportal zones at 30 mg/kg, ig measured after 8 to 36 hrs post dose by immunohistochemical staining assay; format: toxicity, organism-based; conditions: in vivo, po
[22] = tested on: SH-SY5Y; experiment: Neuroprotection against Abeta(1-42)-induced cytotoxicity in human SH-SY5Y cells assessed as increase in cell viability incubated for 1 hr before Abeta(1-42) challenge and measured after 24 hrs by MTT assay; format: functional, cell-based
[23] = tested on: Mus musculus; experiment: Improvement in cognition in ICR mouse model of scopolamine-induced cognition-impairment assessed as improvement in escape latency at 15 to 30 mg/kg, po dosed 30 mins before scopolamine challenge for 10 days by Morris water maze test; format: functional, organism-based
[24] = Toxicity in ICR mouse model of scopolamine-induced cognition-impairment assessed as induction of death at 15 to 30 mg/kg, po dosed 30 mins before scopolamine challenge for 10 days; format: organism-based; conditions: in vivo
[25] = Toxicity in ICR mouse model of scopolamine-induced cognition-impairment assessed as induction of behavioral abnormities at 15 to 30 mg/kg, po dosed 30 mins before scopolamine challenge for 10 days; format: organism-based; conditions: in vivo
[26] = tested on: Mus musculus; experiment: Improvement in cognition in ICR mouse model of scopolamine-induced cognition-impairment assessed as improvement in trajectories to platform at 15 to 30 mg/kg, po dosed 30 mins before scopolamine challenge for 10 days by Morris water maze test; format: functional, organism-based
[27] = tested on: Mus musculus; experiment: Improvement in cognition in ICR mouse model of Abeta(1-42)-induced cognition-impairment assessed as escape latency time at 15 mg/kg, po dosed from days 3 to 14 by Morris water maze test (reference value: 48.9 secs); format: functional
[28] = tested on: Mus musculus; experiment: Improvement in cognition in ICR mouse model of Abeta(1-42)-induced cognition-impairment assessed as improvement in trajectories to platform at 15 mg/kg, po dosed from days 3 to 14 by Morris water maze test; format: functional, organism-based
[29] = tested on: Mus musculus; experiment: Improvement in cognition in ICR mouse model of Abeta(1-42)-induced cognition-impairment assessed as spontaneous alternation performance level at 15 mg/kg, po dosed from days 3 to 14 and measured on day 15 by Y maze test (reference value: 34.43%); format: functional
[30] = Toxicity in ICR mouse model of Abeta(1-42)-induced cognition-impairment assessed as effect on body weight at 15 mg/kg, po dosed from days 3 to 14; format: organism-based; conditions: in vivo
[31] = tested on: Mus musculus; experiment: Reduction in the Abeta(1-42) peptide level in ICR mouse model of Abeta(1-42)-induced cognition-impairment at 15 mg/kg, po dosed from days 3 to 14 by ELISA relative to control; format: functional; set-up: scale not given: the % may be the effect or the level left
[32] = Selectivity index, ratio of inhibition of Electrophorus electricus AChE pre-incubated for 5 mins before acetylthiocholine iodide substrate addition and measured after 2 mins to IC50 for inhibition of equine serum BChE pre-incubated for 5 mins before butyrylthiocholine iodide substrate addition and measured after 2 mins

SMILES: Clc1cccc(Cl)c1N=C1NCCN1 [CLONIDINE]
- Papp [1]: 8.8 ×10⁻⁶ cm/s

SMILES: O=C(c1ccc(F)cc1)C1CCN(CCn2c(=O)[nH]c3ccccc3c2=O)CC1 [KETANSERIN]
- half-life at 1 µM [2]: 31.4 min
- CLint scaled at 1 µM [3]: 55.3 mL/min/kg

SMILES: C[C@]12CCC(=O)C=C1CC[C@@H]1[C@@H]2C(=O)C[C@]2(C)C(=O)CC[C@@H]12 [ADRENOTERONE]
- Papp [1]: 6.05 ×10⁻⁶ cm/s

SMILES: CN(C)CCCN1c2ccccc2Sc2ccc(Cl)cc21 [CHLORPROMAZINE]
- Papp [1]: 12.4 ×10⁻⁶ cm/s

SMILES: CN(CCc1noc(-c2cc3ccccc3[nH]2)n1)C(=O)c1ccc(C(C)(C)C)cc1
- inhibition [4]: 51.6%
- inhibition [5]: 20.3%

SMILES: O=C(c1ccc(C(F)(F)F)cc1)N(CCc1nc(-c2ccc(C(F)(F)F)cc2)no1)Cc1ccco1
- inhibition [4]: -0.61%

SMILES: COc1ccc(-c2cccc(-n3cncc3C(=O)N3Cc4ccccc4C3)c2)cc1OC
- inhibition [4]: 6.29%
- inhibition [5]: 53.4%
- IC50 [6]: 17.3 µM

SMILES: COc1ccc(C2=C(Nc3ccc4oc5ccccc5c4c3)c3ccccc3C2=O)cc1
- inhibition [4]: 42.6%
- inhibition [5]: 4.03%

SMILES: COc1ccc(-c2noc(CN(C(=O)c3ccc4c(c3)OCO4)C3CCCCC3)n2)cc1
- inhibition [4]: -3.2%
- inhibition [5]: 4.33%

SMILES: Cc1ccc2cc(NC(=O)Cn3c(-c4nonc4N)nc4ccccc43)ccc2n1
- inhibition [4]: 15.3%
- inhibition [5]: 96.5%
- IC50 [7]: > 100 µM
- IC50 [6]: 0.18 µM
- IC50 [8]: 0.32 µM
- Ki [9]: 0.232 µM
- inhibition [10]: Dose-dependent effect
- Activity [11]: Non-Toxic
- Activity [12]: Non-Toxic
- Activity [13]: 50%
- Activity [14]: 50%
- Activity [15]: Non-Toxic
- Activity [16]: > 20 µM
- Activity [17]: Non-Toxic
- Activity [18]: Non-Toxic
- Activity [19]: Non-Toxic
- Activity [20]: Non-Toxic
- Activity [21]: Non-Toxic
- Papp [1]: 7.84 ×10⁻⁶ cm/s
- Activity [22]: Dose-dependent effect
- Activity [23]: Dose-dependent effect
- Activity [24]: Non-Toxic
- Activity [25]: Non-Toxic
- Activity [26]: Dose-dependent effect
- Time [27]: 8.83 s
- Activity [28]: Active
- Activity [29]: 63.44%
- Activity [30]: Non-Toxic
- Activity [31]: 40.56%
- half-life at 1 µM [2]: 41.9 min
- CLint scaled at 1 µM [3]: 41.5 mL/min/kg
- Ratio IC50 [32]: > 500

SMILES: CCCN(Cc1csc(COc2ccc(C)cc2)n1)C(=O)c1ccc2c(c1)OCO2
- inhibition [4]: -0.26%
- inhibition [5]: 54.8%
- IC50 [6]: 14.3 µM

SMILES: COCCN(Cc1csc(COc2ccc(C)cc2)n1)C(=O)c1ccc(OC)cc1
- inhibition [4]: 5.79%
- inhibition [5]: 7.17%

SMILES: CC(=O)[C@H]1CC[C@H]2[C@@H]3CCC4=CC(=O)CC[C@]4(C)[C@H]3CC[C@]12C [PROGESTERONE]
- Papp [1]: 15.5 ×10⁻⁶ cm/s

SMILES: CN(CCc1noc(-c2cc3ccccc3[nH]2)n1)C(=O)c1ccc(N(C)C)cc1
- inhibition [4]: 39.4%
- inhibition [5]: 35.4%

SMILES: CN1C(C(=O)Nc2ccccn2)=C(O)c2ccccc2S1(=O)=O [PIROXICAM]
- Papp [1]: 1.69 ×10⁻⁶ cm/s

SMILES: C[C@]12CC[C@@H]3c4ccc(O)cc4CC[C@H]3[C@@H]1CC[C@@H]2O [ESTRADIOL]
- Papp [1]: 20.5 ×10⁻⁶ cm/s

SMILES: COc1cc2c(cc1OC)C(=O)C(CC1CCN(Cc3ccccc3)CC1)C2 (stereo not drawn) [DONEPEZIL]
- Time [27]: 15.3 s
- Activity [28]: Active
- Activity [29]: 65.23%
- Activity [31]: 24.08%

SMILES: COc1cc2c(cc1NC(=O)C(=O)c1c(-c3ccccc3)[nH]c3ccccc13)oc1ccccc12
- inhibition [4]: -4.57%
- inhibition [5]: 0.73%

SMILES: NCCc1ccc(O)c(O)c1 [DOPAMINE]
- Papp [1]: 3.3 ×10⁻⁶ cm/s

SMILES: CCc1noc(-c2cnc3nc(C)ccc3c2Nc2ccc3c(c2)OCCO3)n1
- inhibition [4]: 50.6%
- inhibition [5]: 1.63%
- IC50 [7]: 1.56 µM

SMILES: Cc1ccc(OCc2nc(CN(CC(C)C)C(=O)c3ccc4c(c3)OCO4)cs2)cc1
- inhibition [4]: -6.37%
- inhibition [5]: 54%
- IC50 [7]: 11 µM
- IC50 [6]: 17.7 µM

SMILES: Cc1ccc(-c2nc3ccccc3o2)cc1NCc1cc(Cc2ccccc2)ccc1O
- inhibition [4]: 6.25%
- inhibition [5]: 8.49%

From ChEMBL document CHEMBL4622982, “Discovery and Biological Evaluation of a Novel Highly Potent Selective Butyrylcholinsterase Inhibitor” (J Med Chem, 2020)
